Patent US7943606B2, “Compositions and methods to control abnormal cell growth” (CanCure Laboratories, LLC, priority 2005, dated 2011)

Experiments:
NIH 3T3 cells = experiment: Viability of NIH 3T3 normal fibroblasts (MTT assay); format: cell-based; conditions: 0-200 μM, 72 hours, MTT
Protocol: (§1) To quantify cell death, around the time when significant and characteristic morphological changes took place, cells were pulse-labeled for 10 minutes with [^3H]thymidine to measure DNA activity as described elsewhere [Tomono, M. and Kiss, Z. (1995), “Ethanol enhances the stimulatory effects of insulin and insulin-like growth factor-I on DNA synthesis in NIH 3T3 fibroblasts,” Biochem. Biophys. Res. Commun. 208, 63-67]. Also, cells were collected as suspensions using trypsin, an established method in cell biology, followed by re-plating of cells in fresh tissue culture medium. If no viable cells were obtained after one week in culture, it meant that the cells at the time of re-plating were dead. Survival values obtained with untreated cells were considered 100%. For the determination of relative number of viable cells after treatments, in most cases the MTT assay was used. This calorimetric assay is based on the ability of living cells, but not dead cells, to reduce 3-(4,5-dimethyl thiazol-2-yl)-2,5-diphenyltetrazolium bromide [Carmichael, J, De Graff, W. G., Gazdar, A. F., Minna, J. D. and Mitchell, J. B. (1987), “Evaluation of tetrazolium-based semi-automated calorimetric assay: Assessment of chemosensitivity testing,” Cancer Res. 47, 936-942]. For this assay, cells were plated in 96-well plates, and the MTT assay was performed both in untreated and treated cell cultures. The MTT assay also was performed at the start of treatments to allow assessment of proliferation rates in the control and treated cell cultures.
(§2) The NIH 3T3 (normal) mouse fibroblast, A431 human epidermoid adenocarcinoma, and MCF-7 human breast cancer cells were cultured in DMEM medium containing 10% FBS. The MEL-28 human melanoma cells were cultured in MEM medium containing 10% FBS. The HT-29 human colon adenocarcinoma cells were cultured in McCoy's 5a medium containing 10% FBS. The A549 human lung carcinoma cells were maintained in Ham's F12K medium containing 10% FBS. Cells were seeded into 96-well plates and treated at ˜70-90% confluency. Two hours before treatments the medium was changed for fresh 10% serum medium, and then the cells were incubated for 72 hours in the presence of 0-200 μM of CCompound1 (●) or CCompound3 (CCDTHT) (▴), as indicated. The MTT assay was used to determine cell viability after treatments. The values, shown in FIGS. 5A-5F and expressed as percent decrease in viability compared to the untreated control cells, are the mean±std. dev. of 8 incubations in one experiment. Similar results were obtained in another experiment.
(§3) NIH3T3, T47D, A-431, HT-29, and MEL-28 cells were cultured as indicated earlier. CaOV-3 human ovarian cancer cells were cultured in DMEM containing 10% FBS. ZR-75-1 human estrogen receptor-positive breast cancer cells were maintained in RPMI 1640 medium supplemented with 10% FBS. HTB-157 human fetal fibroblasts, MEL-24 human malignant melanoma cells, Hep G2 human hepatoblastoma cells, and CaCO-2 human colon adenocarcinoma cells were maintained in Eagles's MEM containing 10% FBS. MB-231 human estrogen receptor-negative breast cancer cells were maintained in Leibovitz's L-15 medium supplemented with 10% FBS. Cells were seeded into 96-well plates and treated at ˜70-90% confluency. Two hours prior to treatments the medium was changed for fresh 10% serum medium, and then the cells were incubated for 10 days in the absence (□) or presence of 50 μM CCDTHT ? or 100 μM CCDTHT (▪). The medium was changed and the cells were re-treated on days 3 and 6. The MTT assay was used to determine cell viability on day 10. The data, shown in FIG. 6, are the mean±std. dev. of 8 incubations in one experiment. (The experiment was repeated twice with similar results).
(§4) NIH 3T3, MEL-28, MEL-24, CaOV-3, ZR-75-1, and T47D cells were cultured as described above. The OVCAR human ovarian cancer cells were cultured in DMEM containing 10% FBS. Cells were seeded into 96-well plates and used at ˜60-80% confluency. […]

MCF-7 cells = experiment: Viability of MCF-7 breast cancer cells; format: cell-based, human; conditions: 0-200 μM, 72 hours, MTT
Protocol: as §1
About 50% confluent cultures of MCF-7 cells, cultured in 12-well plates in Dulbecco's modified Eagle's medium (DMEM) supplemented with 10% FBS, were either untreated (FIG. 3A), or were treated with 100 μM CCDTHT (CCompound3) for 72 hours (FIG. 3B). […] This experiment was repeated three times with similar results. In some experiments, cells from the CCDTHT-treated cultures were seeded into 96-well plates, and the MTT assay was performed 96 hours later to test for viable cells.
as §2
NIH 3T3, AN3CA, HT-29, MEL-28, and MCF-7 cells were cultured as described earlier. Cells were seeded into 96-well plates; when cells were ˜80-90% confluent, the medium was changed for fresh 10% serum-containing medium, followed by incubations for 72 hours in the absence (□) or presence of 100 μM CCDTHT ? , 2 mM ethanolamine (Etn) ? , or 100 μM CCDTHT+2 mM Etn (▪). The MTT assay was used to determine cell viability. […]

A-431 cells = experiment: Viability of A-431 epidermoid adenocarcinoma cells (MTT assay); format: cell-based, human; conditions: 0-200 μM, 72 hours, MTT
Protocol: as §1, §2, §3, §4

[1] = Toxicological studies in mice; format: in vivo, mouse; conditions: 200-500 μmole/animal
Protocol: Accordingly, a well-tolerated dose for CCDTHT in mice is 450 μmole/animal (weighing about 25 g) which corresponds to a dose of 4.6 mg/kg. Therapeutically effective concentrations in humans will exert maximal inhibitory effects on the growth of non-healthy tissues without causing significant toxicity in normal healthy tissues.
Parallel toxicological studies also have been performed with 200-500 μmole/animal doses of the commercially available CCompound1. […] CCompound26, which may have an even better toxicity profile based on in vitro experiments with normal cells, was synthesized much later and has not yet been tested in animal experiments.

choline transport = experiment: [14C]choline uptake and metabolism in AN3CA, MCF-7 and MEL-28 cancer cells; format: cell-based, human
Protocol: MEL-28 and MCF-7 cells were cultured in MEM medium supplemented with 10% fetal bovine serum (FBS) and in DMEM medium supplemented with 10% FBS, respectively. The AN3CA human endometrial adenocarcinoma cells were maintained in Eagle's MEM containing 10% FBS. Cancer cells were grown up to confluency in 12-well plates in 10% fetal-bovine serum-containing medium, then incubated in the presence of 1 μCi of [methyl-^14C]choline (bought from Amersham; Piscataway, N.J.) for 2 hours. Cells were first rapidly (within 30 seconds) washed three times with 4 ml of serum-free medium, then extracted with ice-cold methanol. This was followed by the determination of cellular free radiolabeled choline and phosphocholine (PCho) by column chromatography as described earlier [Kiss, Z. and Crilly, K. S. (1995), “Tamoxifen inhibits uptake and metabolism of ethanolamine and choline in multidrug-resistant, but not in drug-sensitive, MCF-7 human breast carcinoma cells,” FEBS Lett. 360, 165-168], and the separation and determination of radiolabeled phosphatidylcholine (PtdCho) by thin layer chromatography as indicated in Kiss [Kiss, Z. (1996), “Direct proof that phorbol ester accelerates the use of choline phosphate for phosphatidylcholine synthesis in intact cells,” Arch. Biochem. Biophys. 335, 191-196].
MCF-7 and MEL-28 cells were cultured as described earlier. The AN3CA human endometrial adenocarcinoma cells were maintained in Eagle's MEM containing 10% FBS. Each cell type was grown in 12-well plates to confluency and then incubated with 1 μCi of [methyl-^14C]choline for 2 hours in the absence (□) or presence of 100 μM CCDTHT ? or 0.5 mM HC-3 (▪), followed by the determination of cellular contents of radiolabeled choline (A), PCho (B) and PtdCho (C), as indicated in FIG. 9. […] Thus, if both CCDTHT and HC-3 influenced cell viability solely via inhibition of choline metabolism, then these agents should similarly affect cell viability, at least at the concentrations used in the choline transport experiment.

[2] = cited from earlier work

With `Cc1c(OCC(O)C[N+](C)(C)C)cc2c(=O)c3ccccc3sc2c1C.[Cl-]` (stereo not shown) [CCcompound1, [3-(3,4-Dimethyl-9-oxo-9H-thioxanthen-2-yloxy)-2-hydroxypropyl]trimethyl-ammonium chloride, reference compound] the “toxic effects in NIH 3T3 (normal) fibroblast cultures” value (NIH 3T3 cells) was “none of these compounds exerted major toxic effects”, the “decrease in viability, MCF-7” value (MCF-7 cells) was “similarly large effects” and the “decrease in viability, A-431” value (A-431 cells) was “similarly large effects”. The tolerability [1] was “similarly well tolerated”.

In the case of `C[N+]1(C)CCOC(O)(c2ccc(-c3ccc(C4(O)C[N+](C)(C)CCO4)cc3)cc2)C1.[Br-].[Br-]` (stereo not shown) [HC-3], the “inhibitory effects on choline uptake and metabolism (choline, PCho, PtdCho)” value (choline transport; 100 μM CCDTHT or 0.5 mM HC-3, 2 hours, each cell line) is reported as “comparably strong inhibitory effects” and the “inhibition of choline transport” value (choline transport; 0.1 mM) is reported as 20-25%.

B1: PALP: human placental alkaline phosphatase, highly purified from commercial (Sigma-Aldrich) PALP (protein, UniProt P05187 23-506, looked up)
Alkaline phosphatase, …: IIPVEEENPDFWNREAAEALGAAKKLQPAQTAAKNLIIFLGDGMGVSTVTAARILKGQKKDKLGPEIPLAMDRFPYVALSKTYNVDKHVPDSGATATAYLCGVKGNFQTIGLSAAARFNQCNTTRGNEVISVMNRAKKAGKSVGVVTTTRVQHASPAGTYAHTVNRNWYSDADVPASARQEGCQDIATQLISNMDIDVILGGGRKYMFRMGTPDPEYPDDYSQGGTRLDGKNLVQEWLAKRQGARYVWNRTELMQASLDPSVTHLMGLFEPGDMKYEIHRDSTLDPSLMEMTEAALRLLSRNPRGFFLFVEGGRIDHGHHESRAYRALTETIMFDDAIERAGQLTSEEDTLSLVTADHSHVFSFGGYPLRGSSIFGLAPGKARDRKAYTVLLYGNGPGYVLKDGARPDVTESESGSPEYRQQSAVPLDEETHAGEDVAVFARGPQAHLVHGVQEQTFIAHVMAFAACLEPYTACDLAPPAGTTD
In the case of B1, the half-life time [2] is listed as 120 to 140 h.
